From patent US8394765B2, “Methods of treating obesity with two different anti-obesity agents” (Amylin Pharmaceuticals LLC, priority 2004, dated 2013) come the findings set out here.

What all share (format): in vivo, rat
Assay [1] in a line: In-bred DIO (Levin) rats, amylin and leptin, body weight and NMR body composition (Example 2). To be noted: two weeks, leptin 500 μg/kg/day, amylin 100 μg/kg/day, FIG. 6A. The protocol: They were housed individually in shoebox cages at 22 C in a 12/12-hour light dark cycle.
(§1) Body composition was measured prior to and after drug treatment using NMR (Echo Medical Systems, Houston, Tex.). For body composition measurements, rats were briefly placed (˜1 min) in a well-ventilated plexiglass tube that was then inserted into a specialized rodent NMR machine. Rats were scanned prior to pump implantation and on the final day of the experiment. This enabled the calculation of changes in actual grams of fat and dry lean tissue (e.g., grams of body fat after treatment−grams of body fat at baseline=change in grams of body fat) and changes in % body composition for fat and dry lean tissue (e.g., % body fat after treatment−% body fat at baseline=change in % body fat).

Assay [2] is described as follows: DIO rats, amylin and phentermine, body weight and body composition (Example 4). The procedure: The combination of amylin and catecholaminergic agonist, phentermine, were also tested for effects on changes in body weight and body composition. Phentermine is classically referred to as a catecholaminergic agonist as it actually hits NA/5-HT receptors. DIO male rats were fattened and divided into four treatment groups, as described above. Each group was implanted with subcutaneous osmotic mini-pumps and/or inserted with an oral gavage, designed to deliver vehicle, phentermine (10 mg/kg/day), amylin (100 μg/kg/day) or phentermine (10 mg/kg/day)+amylin (100 μg/kg/day) for a 14 day period. The mini-pump contained either vehicle (50% DMSO in water) or amylin while the oral gavage administered either sterile water or phentermine. Body weight was recorded daily and body composition was measured prior to and after drug treatment using NMR.

Assay [3] is described as follows: DIO (Levin) rats, amylin and CB-1 antagonist rimonabant, body weight and body composition (Example 5). The protocol: These rats were developed by Barry Levin from a line of Crl:CD®(SD)BR rats that are prone to become obese on a diet relatively high in fat and energy. They were housed individually in shoebox cages at 22 C in a 12/12-hour light dark cycle. […] Rats were habituated to oral gavage for 1 week prior to treatment. Rimonabant was administered at a range of doses (0.1, 0.3, 1.0, 3.0. 10 mg/kg/day) by oral gavage. Amylin (dissolved in 50% DMSO sterile water) or vehicle was administered by mini-pump (100 μg/kg/day). Rimonabant was always delivered just prior to lights out. Food intake and body weight were measured at 1 and 2 weeks post-treatment. Body composition was measured prior to and after drug treatment using NMR (Echo Medical Systems, Houston, Tex.). For body composition measurements, rats were briefly placed (˜1 min) in a well-ventilated plexiglass tube that was then inserted into a specialized rodent NMR machine. Rats were scanned prior to pump implantation and on the final day of the experiment. This enabled the calculation of changes in actual grams of fat and dry lean tissue (e.g., grams of body fat after treatment−grams of body fat at baseline=change in grams of body fat) and changes in % body composition for fat and dry lean tissue (e.g., % body fat after treatment−% body fat at baseline=change in % body fat).

Assay [4] can be described thus: DIO rats, amylin and PYY(3-36), body weight and body composition (Example 7). The procedure:
Each group was implanted with subcutaneous osmotic mini-pumps, designed to deliver vehicle, PYY(3-36) (1000 μg/kg/day), amylin (100 μg/kg/day) or PYY(3-36) (1000 μg/kg/day)+amylin (100 μg/kg/day) for a 14 day period. PYY(3-36) was administered by mini-pump at a range of doses (100, 200, 400, 800, 1000 μg/kg/day). Amylin 100 μg/kg/day (dissolved in 50% DMSO sterile water), PYY(3-36) (dissolved in 50% DMSO sterile water) or vehicle was administered by mini-pump. Food intake and body weight was recorded daily. Body composition was measured prior to and after drug treatment using NMR (Echo Medical Systems, Houston, Tex.). For body composition measurements, rats were briefly placed (˜1 min) in a well-ventilated plexiglass tube that was then inserted into a specialized rodent NMR machine. Rats were scanned prior to pump implantation and on the final day of the experiment. This enabled the calculation of changes in actual grams of fat and dry lean tissue (e.g., grams of body fat after treatment−grams of body fat at baseline […]) and changes in % body composition for fat and dry lean tissue (e.g., % body fat after treatment−% body fat at baseline=change in % body fat).

The nature of assay [5]: Serum leptin levels by immunoassay in DIO prone and normal HSD rats after amylin (Example 3). To be noted: amylin 100 μg/kg/day, 14 days, FIG. 8. The procedure:
DIO prone and normal HSD rats were divided into three treatment groups. Two groups were implanted with subcutaneous osmotic mini-pumps (DURECT Corp., Cupertino, Calif.) designed to deliver vehicle or amylin (100 μg/kg/day) and the third group was pair-fed to the amount consumed by the amylin-treated group for a 14 day period. Serum leptin levels were determined by immunoassays using a commercial kit (Linco Research, Inc., St. Charles, Mo.). […] Thus, DIO prone rats are hyper-leptinemic.

A short description of assay [6]: DIO rats, amylin and exendin-4 analog, body weight and body composition (Example 6). The protocol: as §1, with “[…]. Prior to drug administration rats had typically attained a mean body weight of 500 g Exendin-4 analog was administered by minipump at a range of doses (0.3, 1, 3, 10, 30 μg/kg/day). Amylin (dissolved in 50% DMSO in water) or vehicle was administered by mini-pump (100 μg/kg/day). Body weight and food intake was recorded daily. Body” for “Body”

Assay [7] can be described thus: DIO rats, amylin and sibutramine, body weight and body composition (Example 4). The protocol:
Rat amylin was dissolved in 50% DMSO in sterile water and sibutramine was dissolved in sterile water. Each group was implanted with subcutaneous osmotic mini-pumps designed to deliver vehicle, sibutramine (3 mg/kg/day) or amylin (100 μg/kg/day) for a 14 day period. Body weight and food intake were recorded daily. Body composition was measured prior to and after drug treatment using NMR (Echo Medical Systems, Houston, Tex.). For body composition measurements, rats were briefly placed (˜1 min) in a well-ventilated plexiglass tube that was then inserted into a specialized rodent NMR machine. Rats were scanned prior to pump implantation and on the final day of the experiment. This enabled the calculation of changes in actual grams of fat and dry lean tissue (e.g., grams of body fat after treatment−grams of body fat at baseline=change in grams of body fat) and changes in % body composition for fat and dry lean tissue (e.g., % body fat after treatment−% body fat at baseline=change in % body fat).

Assay [8] is described as follows: Pair-feeding experiment in DIO rats, amylin+leptin (Example 2). To be noted: two weeks, ad libitum access to food, FIG. 7. The protocol: Amylin is known to have an anorectic effect on a recipient. In order to examine the effect of amylin+leptin in the context of an anorectic effect of amylin, a pair-feeding experiment was performed. DIO rats and drug treatment groups were established as described above. DIO rats in the vehicle, amylin, and amylin+leptin treatment groups had ad libitum access to food, while intake in the pair-fed leptin treatment was restricted to the amount consumed by the amylin-treated group. Body weight was recorded daily for the two weeks of treatment. […] The combination of amylin+leptin results in a decrease of about 12% in body weight relative to vehicle control.

As to Rat amylin, the “vehicle-corrected decrease in percent body weight” value in assay [1] was 6%; in assay [2] (two weeks, phentermine 10 mg/kg/day oral gavage, amylin 100 μg/kg/day, FIG. 11A) it was about 7%; in assay [3] (two weeks, rimonabant 3 mg/kg/day oral gavage, amylin 100 μg/kg/day, FIG. 12A), about 6%; in assay [4] (two weeks, PYY(3-36) 1000 μg/kg/day, amylin 100 μg/kg/day, FIG. 16A) it was about 7%; in assay [6] (two weeks, exendin-4 analog 10 μg/kg/day, amylin 100 μg/kg/day, FIG. 15A), about 6%; in assay [7] (two weeks, sibutramine 3 mg/kg/day, amylin 100 μg/kg/day, FIG. 10A) it was about 6%. Further, the “changes in body fat (fat mass)” value in assay [2] (after two weeks, FIG. 11B) is reported as “greater amount of fat mass loss”; in assay [3] (after two weeks, FIG. 12B), “Fat mass loss was evident”; in assay [6] (after two weeks, FIG. 15B) it was “relatively equivalent decrease in fat mass”; in assay [7] (after two weeks, FIG. 10B) it was “Fat mass loss was evident”. In addition, the “changes in body protein (lean mass)” value in assay [2] (after two weeks, FIG. 11C) is “preserved lean (protein) mass”; in assay [3] (after two weeks, FIG. 12C) it was “relatively equivalent increase in lean (protein) mass”; in assay [4] (after two weeks, FIG. 16C), “increase in lean (protein) mass”; in assay [6] (after two weeks, FIG. 15C), “relatively equivalent increase in lean (protein) mass”; in assay [7] (after two weeks, FIG. 10C), “increase in lean (protein) mass”. Moreover, the “changes in body fat (fat mass loss)” value in assay [4] (after two weeks, order PYY(3-36) alone, amylin alone, combination, FIG. 16B) is “Increasing amount of fat mass loss”. In addition, the “serum (plasma) leptin levels” value in assay [5] (DIO prone rats) and in assay [5] (normal HSD rats) was “significantly reduced” throughout. Also, the “decrease in body weight relative to vehicle control” value in assay [8] is on record as about 6%.
